# Laboratory results reported in patent publication US11760722B2 (priority 2022, dated 2023).
# Like-named read-outs stand apart in the source and are kept apart here.
# Columns and labels:
# [1] = test system: human coronavirus (HCoV) 229E; assay: microbe, parasite or virus in culture; assay type: cell-based, human coronavirus 229E; details: MRCS cells, HCoV 229E, 3 days, CellTiter Glo, read-out: 229E CPE EC50
# Experimental: Test compounds were provided by the sponsor. Reference compound remdesivir was provided by WuXi AppTec. Compounds were assayed at 8 concentrations (to be defined by sponsor), in duplicate wells.
# MRCS cells were obtained from the ATCC, and maintained in the Minimum Essential Medium supplemented with 10% FBS, 1% L-glutamine, 1% NEAA and 1% penicillin-streptomycin. Minimum Essential Medium supplemented with 5% FBS, 1% L-glutamine, 1% NEAA and 1% penicillin-streptomycin was used as the assay medium.
# Cells were seeded in 96 well plates, in 100 μl per well of assay medium, and cultured at 37° C. and 5% CO2 overnight. Next day, test compound was diluted with assay medium and then added into the cells, 50 μl per well. Then 50 μl per well of assay medium diluted virus was added. The final volume of the cell culture was 200 μl per well. […] The CPE were measured by CellTiter Glo following the manufacturer's manual. The antiviral activity of compounds was calculated based on the protection of the virus-induced CPE at each concentration normalized by the virus control.
# EC50 and CC50 values were calculated using the GraphPad Prism software using the nonlinear regression model of log(inhibitor) vs. response—Variable slope (four parameters).
# [2] = test system: SARS-CoV-2 replicon; assay: microbe, parasite or virus in culture; assay type: cell-based; details: read-out: Replicon EC50
# [3] = unidentified human coronavirus, 72 h
# [4] = Severe acute respiratory syndrome coronavirus 2, Huh-7, 24 h
Structure (SMILES),EC50 [1],"EC50 [1, 3]","EC50 [2, 4]",EC50 [2]
CC(C)(C)[C@H](NC(=O)CC#N)C(=O)N1C[C@H]2[C@@H]([C@H]1C(=O)N[C@H](C#N)C[C@@H]1CCNC1=O)C2(C)C [Compound 33],18000 nM,17800 nM,–,–
CNC(=S)N[C@H](C(=O)N1C[C@H]2[C@@H]([C@H]1C(=O)N[C@H](C#N)C[C@@H]1CCNC1=O)C2(C)C)C(C)(C)C [Compound 35],–,4960 nM,–,–
"CN(C)S(=O)(=O)N[C@H](C(=O)N1C[C@H]2[C@@H]([C@H]1C(=O)N[C@H](C#N)C[C@@H]1CCNC1=O)C2(C)C)C(C)(C)C [Compound 47, (1R,2S,5S)—N—((S)-1-cyano-2-((S)-2-oxopyrrolidin-3-yl)ethyl)-3-((S)-2-((N,N-dimethylsulfamoyl)amino)-3,3-dimethylbutanoyl)-6,6-dimethyl-3-azabicyclo[3.1.0]hexane-2-carboxamide]",7320 nM,6190 nM,–,–
CC(C)(C)[C@H](NS(=O)(=O)N1CCOCC1)C(=O)N1C[C@H]2[C@@H]([C@H]1C(=O)N[C@H](C#N)C[C@@H]1CCNC1=O)C2(C)C [Compound 49],5780 nM,3880 nM,–,–
C=C(F)C(=O)N[C@H](C(=O)N1C[C@H]2[C@@H]([C@H]1C(=O)N[C@H](C#N)C[C@@H]1CCNC1=O)C2(C)C)C(C)(C)C [Compound 66],1400 nM,1080 nM,–,–
CC(C)(C)[C@H](NC(=O)C(Cl)(Cl)C(F)(F)F)C(=O)N1C[C@H]2[C@@H]([C@H]1C(=O)N[C@H](C#N)C[C@@H]1CCNC1=O)C2(C)C [Compound 71],321 nM,302 nM,–,–
CC(C)(C)[C@H](NC(=O)c1cccc(S(F)(F)(F)(F)F)c1)C(=O)N1C[C@H]2[C@@H]([C@H]1C(=O)N[C@H](C#N)C[C@@H]1CCNC1=O)C2(C)C [Compound 145],–,–,3960 nM,4000 nM
CC(C)(C)[C@H](NC(=O)C(F)(F)C(F)(F)C(F)(F)C(F)(F)F)C(=O)N1C[C@H]2[C@@H]([C@H]1C(=O)N[C@H](C#N)C[C@@H]1CCNC1=O)C2(C)C [Compound 146],–,–,80 nM,85 nM
CC(C)(C)[C@H](NC(=O)c1ccc(S(F)(F)(F)(F)F)cc1)C(=O)N1C[C@H]2[C@@H]([C@H]1C(=O)N[C@H](C#N)C[C@@H]1CCNC1=O)C2(C)C [Compound 147],–,–,> 10000 nM,–
Cc1c(S(=O)(=O)N[C@H](C(=O)N2C[C@H]3[C@@H]([C@H]2C(=O)N[C@H](C#N)C[C@@H]2CCNC2=O)C3(C)C)C(C)(C)C)sc2ccc(F)cc12 [Compound 148],–,–,16 nM,–
CC(C)(C)[C@H](NC(=O)CC(C(F)(F)F)C(F)(F)F)C(=O)N1C[C@H]2[C@@H]([C@H]1C(=O)N[C@H](C#N)C[C@@H]1CCNC1=O)C2(C)C [Compound 149],–,–,240 nM,–
CN([C@H](C(=O)N1C[C@H]2[C@@H]([C@H]1C(=O)N[C@H](C#N)C[C@@H]1CCNC1=O)C2(C)C)C(C)(C)C)S(=O)(=O)c1ccc2ccccc2c1 [Compound 150],–,–,2910 nM,–
Cc1cc(C)c(S(=O)(=O)N[C@H](C(=O)N2C[C@H]3[C@@H]([C@H]2C(=O)N[C@H](C#N)C[C@@H]2CCNC2=O)C3(C)C)C(C)(C)C)c(C)c1 [Compound 152],–,–,65 nM,–
CCN([C@H](C(=O)N1C[C@H]2[C@@H]([C@H]1C(=O)N[C@H](C#N)C[C@@H]1CCNC1=O)C2(C)C)C(C)(C)C)S(=O)(=O)c1ccc(OC)cc1 [Compound 153],–,–,2110 nM,–
CN([C@H](C(=O)N1C[C@H]2[C@@H]([C@H]1C(=O)N[C@H](C#N)C[C@@H]1CCNC1=O)C2(C)C)C(C)(C)C)S(=O)(=O)c1ccc(Cl)s1 [Compound 155],–,–,> 10000 nM,–
CN([C@H](C(=O)N1C[C@H]2[C@@H]([C@H]1C(=O)N[C@H](C#N)C[C@@H]1CCNC1=O)C2(C)C)C(C)(C)C)S(=O)(=O)c1cccc2ccccc12 [Compound 156],–,–,1400 nM,–
CCCc1ccc(S(=O)(=O)N[C@H](C(=O)N2C[C@H]3[C@@H]([C@H]2C(=O)N[C@H](C#N)C[C@@H]2CCNC2=O)C3(C)C)C(C)(C)C)s1 [Compound 171],–,–,29 nM,–
